Test results reported in the supplement of paper PMC9013687.

Experiments:
Danio rerio embryo [1] = assay: EC50 Head trunk angle_Decrease; conditions: exposure time: 2 dpf
Protocol: (§1)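 Zebrafish embryos (UFZ-OBI strain) were exposed from 2 hpf for 48 h (2 dpf) or 96 h (4 dpf) at 28 °C; spontaneous tail coiling was scored at 25 hpf. Morphological features from automated image analysis (FishInspector), heart rate and locomotor response were fitted with drc models. Quantal endpoints were dichotomised at 2.5 SD from controls and fitted with a log-logistic model; heart rate, pigmentation and STC were normalised to the replicate control mean. Betamethasone was tested as betamethasone dipropionate, diflorasone as diflorasone diacetate.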

Danio rerio embryo [2] = assay: EC10 Head trunk angle_Decrease; higher = less potent; conditions: exposure time: 2 dpf
Protocol: as §1

Danio rerio embryo [3] = assay: EC20 Pigmentation decrease; higher = less potent
Protocol: as §1

Danio rerio embryo [4] = assay: EC50 Mandibular arch distance_Decrease; conditions: exposure time: 4 dpf
Protocol: as §1

Danio rerio embryo [5] = assay: EC10 Lack of SB; higher = less potent; conditions: exposure time: 4 dpf
Protocol: as §1

Danio rerio embryo [6] = conditions: exposure time: 4 dpf
Protocol: as §1

Danio rerio embryo [7] = assay: EC20 Eye size_Decrease; higher = less potent
Protocol: as §1

Danio rerio embryo [8] = assay: EC20 STC bell shape; higher = less potent; conditions: exposure time: 25 h
Protocol: as §1

Danio rerio embryo [9] = assay: EC20 Head size_Decrease; higher = less potent
Protocol: as §1

Danio rerio embryo [10] = assay: EC10 Heart rate; higher = less potent
Protocol: as §1

Danio rerio embryo [11] = assay: EC10 Eye size_Decrease; higher = less potent
Protocol: as §1

Danio rerio embryo [12] = assay: EC10 Head size_Decrease; higher = less potent
Protocol: as §1

Danio rerio embryo [13] = assay: EC10 Pigmentation decrease; higher = less potent
Protocol: as §1

Danio rerio embryo [14] = assay: EC10 STC bell shape; higher = less potent; conditions: exposure time: 25 h
Protocol: as §1

Danio rerio embryo [15] = assay: EC10 Mandibular arch distance_Decrease; higher = less potent; conditions: exposure time: 4 dpf
Protocol: as §1

Danio rerio embryo [16] = assay: EC20 Heart rate; higher = less potent
Protocol: as §1

Danio rerio embryo [17] = assay: EC50 Head size_Decrease
Protocol: as §1

Danio rerio embryo [18] = tested on: Danio rerio embryo
Protocol: as §1

Danio rerio embryo [19] = tested on: Danio rerio embryo; remark: listed apart in the source
Protocol: as §1

Danio rerio embryo [20] = assay: EC20 Mandibular arch distance_Decrease; higher = less potent; conditions: exposure time: 4 dpf
Protocol: as §1

Danio rerio embryo [21] = assay: EC50 Eye size_Decrease
Protocol: as §1

Danio rerio embryo [22] = assay: EC20 LMR ligth decrease; higher = less potent; conditions: exposure time: 4 dpf
Protocol: as §1

Danio rerio embryo [23] = assay: EC10 Pigmentation increase; higher = less potent; conditions: exposure time: 4 dpf
Protocol: as §1

Danio rerio embryo [24] = assay: EC10 STC decrease; higher = less potent; conditions: exposure time: 25 h
Protocol: as §1

Danio rerio embryo [25] = assay: EC10 LMR ligth decrease; higher = less potent; conditions: exposure time: 4 dpf
Protocol: as §1

Danio rerio embryo [26] = assay: EC20 Pigmentation increase; higher = less potent; conditions: exposure time: 4 dpf
Protocol: as §1

Danio rerio embryo [27] = assay: EC20 STC decrease; higher = less potent; conditions: exposure time: 25 h
Protocol: as §1

Danio rerio embryo [28] = assay: EC20 Otolith; higher = less potent; conditions: exposure time: 2 dpf
Protocol: as §1

Danio rerio embryo [29] = assay: EC10 Otolith; higher = less potent; conditions: exposure time: 2 dpf
Protocol: as §1

Danio rerio embryo [30] = assay: EC10 Head-trunk angle_Decrease; higher = less potent; conditions: exposure time: 2 dpf
Protocol: as §1

Danio rerio embryo [31] = assay: EC50 Head-trunk angle_Decrease; conditions: exposure time: 2 dpf
Protocol: as §1

Danio rerio embryo [32] = assay: EC20 Head-trunk angle_Decrease; higher = less potent; conditions: exposure time: 2 dpf
Protocol: as §1

Structure (SMILES) | EC50 Head trunk angle Decrease (Danio rerio embryo [1]) [µM] | EC10 Head trunk angle Decrease (Danio rerio embryo [2]) [µM] | EC20 Pigmentation decrease (Danio rerio embryo [3]; exposure time: 2 dpf) [µM] | EC10 Lack of SB (Danio rerio embryo [5]) [µM] | EC50 Lack of SB (Danio rerio embryo [6]) [µM] | EC20 Eye size Decrease (Danio rerio embryo [7]; exposure time: 2 dpf) [µM] | EC20 Eye size Decrease (Danio rerio embryo [7]; exposure time: 4 dpf) [µM] | EC20 Head size Decrease (Danio rerio embryo [9]; exposure time: 2 dpf) [µM] | EC10 Heart rate (Danio rerio embryo [10]; exposure time: 2 dpf) [µM] | EC10 Heart rate (Danio rerio embryo [10]; exposure time: 4 dpf) [µM] | EC10 Eye size Decrease (Danio rerio embryo [11]; exposure time: 2 dpf) [µM] | EC10 Eye size Decrease (Danio rerio embryo [11]; exposure time: 4 dpf) [µM] | EC10 Head size Decrease (Danio rerio embryo [12]; exposure time: 2 dpf) [µM] | EC10 Pigmentation decrease (Danio rerio embryo [13]; exposure time: 2 dpf) [µM] | EC20 Heart rate (Danio rerio embryo [16]; exposure time: 2 dpf) [µM] | EC20 Heart rate (Danio rerio embryo [16]; exposure time: 4 dpf) [µM] | EC50 Head size Decrease (Danio rerio embryo [17]; exposure time: 2 dpf) [µM] | EC50 Pigmentation decrease (Danio rerio embryo [18]; exposure time: 2 dpf) [µM] | EC50 Eye size Decrease (Danio rerio embryo [21]; exposure time: 2 dpf) [µM] | EC50 Eye size Decrease (Danio rerio embryo [21]; exposure time: 4 dpf) [µM] | other results
CCCCC(O)(Cn1cncn1)c1ccc(Cl)cc1Cl (configuration not stated) [Hexaconazole] | 23.3 | 12.8 | 19.4 | 6.28 | 10.3 | 48.8 | 12.2 | 40.3 | 8.31 | 5.53 | 44.9 | 10.7 | 33.8 | 17.8 | 14.8 | 11.1 | 54.3 | 22.6 | 56.1 | 15.1 | EC50 Mandibular arch distance Decrease (Danio rerio embryo [4]): 37.1 µM; EC20 STC bell shape (Danio rerio embryo [8]): 19.2 µM; EC10 STC bell shape (Danio rerio embryo [14]): 17.5 µM; EC10 Mandibular arch distance Decrease (Danio rerio embryo [15]): 19.8 µM; EC50 Heart rate (Danio rerio embryo [19]; exposure time: 2 dpf): 39.8 µM; EC20 Mandibular arch distance Decrease (Danio rerio embryo [20]): 24.9 µM
CSc1nc2cc(Cl)c(Oc3cccc(Cl)c3Cl)cc2[nH]1 [Triclabendazole] | 2.05 | 1.39 | 1.6 | 0.462 | 0.516 | 1.42 | 0.512 | – | 0.345 | 0.19 | 1.27 | 0.448 | – | 1.44 | 0.829 | 0.364 | – | 1.92 | 1.72 | 0.644 | EC20 LMR ligth decrease (Danio rerio embryo [22]): 0.792 µM; EC10 Pigmentation increase (Danio rerio embryo [23]): 0.654 µM; EC10 STC decrease (Danio rerio embryo [24]): 0.00111 µM; EC10 LMR ligth decrease (Danio rerio embryo [25]): 0.783 µM; EC20 Pigmentation increase (Danio rerio embryo [26]): 0.667 µM; EC20 STC decrease (Danio rerio embryo [27]): 0.00782 µM; EC50 Heart rate (Danio rerio embryo [19]; exposure time: 2 dpf): 3.71 µM; EC50 Heart rate (Danio rerio embryo [19]; exposure time: 4 dpf): 1.11 µM
CCCCOC(=O)[C@@H](C)Oc1ccc(Oc2ccc(C(F)(F)F)cn2)cc1 [fluazifop-p-butyl] | 15.5 | 1.74 | 4.35 | 0.734 | 1.65 | 1.69 | 1.07 | 4.24 | – | – | 1.03 | 0.781 | 3.19 | 2.74 | – | – | 6.88 | 9.58 | 3.96 | 1.85 | EC20 Otolith (Danio rerio embryo [28]): 6.11 µM; EC10 Otolith (Danio rerio embryo [29]): 4.73 µM
CCOC(=O)N1CCC(=C2c3ccc(Cl)cc3CCc3cccnc32)CC1 [Loratadine] | 7.05 | 4.17 | – | 0.167 | 0.282 | 6.71 | 5.96 | 4.61 | 1.01 | 1.1 | 5.86 | 5.5 | 2.55 | – | 2.72 | 2.18 | 12.7 | – | 8.45 | 6.82 | EC20 Pigmentation decrease (Danio rerio embryo [3]; exposure time: 4 dpf): 8.62 µM; EC10 STC decrease (Danio rerio embryo [24]): 3.8 µM; EC20 Head size Decrease (Danio rerio embryo [9]; exposure time: 4 dpf): 8.95 µM; EC10 Head size Decrease (Danio rerio embryo [12]; exposure time: 4 dpf): 6.85 µM; EC10 Pigmentation decrease (Danio rerio embryo [13]; exposure time: 4 dpf): 8.11 µM; EC20 STC decrease (Danio rerio embryo [27]): 4.66 µM; EC50 Head size Decrease (Danio rerio embryo [17]; exposure time: 4 dpf): 14.1 µM; EC50 Pigmentation decrease (Danio rerio embryo [18]; exposure time: 4 dpf): 9.57 µM; EC50 Heart rate (Danio rerio embryo [19]; exposure time: 2 dpf): 14.8 µM; EC50 Heart rate (Danio rerio embryo [19]; exposure time: 4 dpf): 7.03 µM
C[Si](Cn1cncn1)(c1ccc(F)cc1)c1ccc(F)cc1 [Flusilazole] | – | – | – | 1.64 | 2.78 | 21.8 | 4.86 | 28.8 | 16 | 4.6 | 21.5 | 4.51 | 28.1 | – | 26.2 | 7.13 | 30.1 | – | 22.3 | 5.51 | EC20 Pigmentation decrease (Danio rerio embryo [3]; exposure time: 4 dpf): 7.16 µM; EC50 Mandibular arch distance Decrease (Danio rerio embryo [4]): 11.4 µM; EC10 Head-trunk angle Decrease (Danio rerio embryo [30]): 4.35 µM; EC10 STC decrease (Danio rerio embryo [24]): 2.72 µM; EC50 Head-trunk angle Decrease (Danio rerio embryo [31]): 11.8 µM; EC10 Pigmentation decrease (Danio rerio embryo [13]; exposure time: 4 dpf): 3.38 µM; EC20 STC decrease (Danio rerio embryo [27]): 4.11 µM; EC10 Mandibular arch distance Decrease (Danio rerio embryo [15]): 6.12 µM; EC50 Pigmentation decrease (Danio rerio embryo [18]; exposure time: 4 dpf): 22.2 µM; EC20 Mandibular arch distance Decrease (Danio rerio embryo [20]): 7.71 µM; EC20 Head-trunk angle Decrease (Danio rerio embryo [32]): 6.28 µM
